In ChEMBL document CHEMBL3301448, “MMV Malaria Box screening against Toxoplasma gondii and Entamoeba histolytica”:

Assays:
Toxoplasma gondii = experiment: MMV: A total of 100ul of inoculum was added to each well (parasite/cell ratio, ~10:1; final volume, 200 ul). Six hours after inoculation, nonadherent parasites were removed, and 100 ul of complete DMEM (1% penicillin-streptomycin, 3% FBS) supplemented with inhibitors at different concentrations (2-fold serial dilutions starting from 30 uM) was added to all except the negative-control wells. Positive controls, consisting of pyrimethamine (PYR) and sulfadiazine (SDZ) (20-mg/ml stocks in DMSO), were tested at a 2mg/ml final concentration. Each test was performed in triplicate.; type: functional, organism-based; conditions: 6 h
Entamoeba histolytica = experiment: MMV: Primary screening was performed with each compound at a 30 uM final concentration and in triplicate in sealed 96-well polystyrene microtiter plates. Parasite inocula (100 ul) comprising 20000 parasites/ml were added to each well and grown at 37 degrees C in a humidified atmosphere of 5% CO2 for 72 h. Positive controls consisted of metronidazole at 1 mg/ml. The growth of E. histolytica trophozoites in each well was determined microscopically by measuring the diameters of the confluent cells in drug-containing wells relative to those in the nega- tive-control wells.; type: functional, organism-based

## COc1ccc2c(c1)C1(Nc3ccccc3-c3nc4ccccc4n31)C(=O)N2 (stereo not drawn)
Toxoplasma gondii
  IC50: > 30 µM
Entamoeba histolytica
  IC50: > 30 µM

## CCOc1cc(CNC(C)C(O)c2ccccc2)cc(Cl)c1OCC (stereo not drawn)
Toxoplasma gondii
  IC50: > 30 µM
Entamoeba histolytica
  IC50: > 30 µM

## CCOc1c(Cl)cc(CNCC(O)c2ccccc2)cc1OC (stereo not drawn)
Toxoplasma gondii
  IC50: > 30 µM
Entamoeba histolytica
  IC50: > 30 µM

## OC(CNCC1CCCO1)Cn1c2ccc(Cl)cc2c2cc(Cl)ccc21 (stereo not drawn)
Toxoplasma gondii
  IC50: > 30 µM
Entamoeba histolytica
  IC50: > 30 µM

## COc1ccc2nc(C)cc(Nc3ccccc3O)c2c1
Toxoplasma gondii
  IC50: > 30 µM
Entamoeba histolytica
  IC50: > 30 µM

## CCn1nc(-c2ccc(C(=O)OC)cc2)nc2c(=O)n(C)c(=O)nc1-2
Toxoplasma gondii
  IC50: > 30 µM
Entamoeba histolytica
  IC50: > 30 µM

## Cc1cc(NC(=O)c2cccc(C(F)(F)F)c2)n(-c2nc(-c3ccc4c(c3)OCO4)cs2)n1
Toxoplasma gondii
  IC50: > 30 µM
Entamoeba histolytica
  IC50: > 30 µM

## CC1(c2ccccc2)Nc2ccccc2-c2nc3ccccc3n21 (stereo not drawn)
Toxoplasma gondii
  IC50: > 30 µM
Entamoeba histolytica
  IC50: > 30 µM

## COc1cccc(C2(C)Nc3ccccc3-c3nc4ccccc4n32)c1 (stereo not drawn)
Toxoplasma gondii
  IC50: > 30 µM
Entamoeba histolytica
  IC50: > 30 µM

## CC(C)CNC(=O)c1c(N)n(CCc2ccccc2F)c2nc3ccccc3nc12
Toxoplasma gondii
  IC50: 26.8 µM
Entamoeba histolytica
  IC50: > 30 µM

## CC(C)(C)CC(C)(C)NCC(O)COc1ccc(Cl)cc1Cl (stereo not drawn)
Toxoplasma gondii
  IC50: > 30 µM
Entamoeba histolytica
  IC50: > 30 µM

## Cc1cccc(-n2ncc3c(O)nc(-n4nc(C)cc4NC(=O)c4cc5ccccc5o4)nc32)c1
Toxoplasma gondii
  IC50: > 30 µM
Entamoeba histolytica
  IC50: > 30 µM

## O=C(Nc1ccc(Br)cc1)Nc1cccc(Cl)c1
Toxoplasma gondii
  IC50: > 30 µM
Entamoeba histolytica
  IC50: > 30 µM

## Oc1ccccc1CN1CCC2(CCCN(Cc3ccccc3F)C2)C1 (stereo not drawn)
Toxoplasma gondii
  IC50: > 30 µM
Entamoeba histolytica
  IC50: > 30 µM

## COc1cccc(Nc2nc(NCCO)c3ccccc3n2)c1
Toxoplasma gondii
  IC50: > 30 µM
Entamoeba histolytica
  IC50: > 30 µM

## Cc1ccc(-c2cc(C(=O)Nc3ccc(S(=O)(=O)N4CCCCC4)cc3)[nH]n2)c(O)c1
Toxoplasma gondii
  IC50: > 30 µM
Entamoeba histolytica
  IC50: > 30 µM

## COCCNCC(O)Cn1c2ccc(Cl)cc2c2cc(Cl)ccc21 (stereo not drawn)
Toxoplasma gondii
  IC50: > 30 µM
Entamoeba histolytica
  IC50: > 30 µM

## COc1ccc(N2CCN(C(CNC(=O)C3CCCCC3)c3ccc4c(c3)OCO4)CC2)cc1 (stereo not drawn)
Toxoplasma gondii
  IC50: 26.6 µM
Entamoeba histolytica
  IC50: > 30 µM

## COc1ccc2nc(C)cc(Nc3ccc(Cl)cc3)c2c1
Toxoplasma gondii
  IC50: > 30 µM
Entamoeba histolytica
  IC50: > 30 µM

## O=C(NC1CCN(Cc2ccccc2)CC1)c1cc(-c2ccncc2)nc2ccc(Cl)cc12
Toxoplasma gondii
  IC50: > 30 µM
Entamoeba histolytica
  IC50: > 30 µM

## CCC(O)c1ccc(Br)cc1NC(=O)c1cccc(Cl)c1 (stereo not drawn)
Toxoplasma gondii
  IC50: > 30 µM
Entamoeba histolytica
  IC50: > 30 µM

## COc1cc2cc(C(=O)Nc3ccccc3)c(N)nc2cc1OC
Toxoplasma gondii
  IC50: > 30 µM
Entamoeba histolytica
  IC50: > 30 µM

## Cn1c(=O)c2cc(C(=O)NCCCN3CCCCCC3)sc2c2ccccc21
Toxoplasma gondii
  IC50: > 30 µM
Entamoeba histolytica
  IC50: > 30 µM

## Cc1[nH]c(-c2ccc(F)cc2)cc1C(=O)NC1CCN(Cc2ccccc2)CC1
Toxoplasma gondii
  IC50: > 30 µM
Entamoeba histolytica
  IC50: > 30 µM

## Cc1sc2ncnc(Sc3nc4ccccc4[nH]3)c2c1C
Toxoplasma gondii
  IC50: 13.9 µM
Entamoeba histolytica
  IC50: > 30 µM

## COc1ccc(CCN2CCC(CN(C)Cc3cnn(-c4ccccc4)c3)CC2)cc1
Toxoplasma gondii
  IC50: > 30 µM
Entamoeba histolytica
  IC50: > 30 µM

## O=C(NC(c1ccccc1)c1ccc2cccnc2c1O)c1ccccc1 (stereo not drawn)
Toxoplasma gondii
  IC50: > 30 µM
Entamoeba histolytica
  IC50: > 30 µM

## Oc1ccccc1CN1CCN(C(c2ccccc2)c2ccccc2)CC1
Toxoplasma gondii
  IC50: > 30 µM
Entamoeba histolytica
  IC50: > 30 µM

## O=C(NC1CCCC1)c1ccc(N2CCC(NCc3cccc(C(F)(F)F)c3)CC2)cc1
Toxoplasma gondii
  IC50: > 30 µM
Entamoeba histolytica
  IC50: > 30 µM

## CCOc1cc(Br)c(C(C)NC(=O)c2cccc(OC)c2)cc1OCC (stereo not drawn)
Toxoplasma gondii
  IC50: > 30 µM
Entamoeba histolytica
  IC50: > 30 µM

## CCN(CC)CCn1c(=N)n(CC(O)c2ccc(Cl)c(Cl)c2)c2ccccc21 (stereo not drawn)
Toxoplasma gondii
  IC50: > 30 µM
Entamoeba histolytica
  IC50: > 30 µM

## CCOc1cc(Cl)c(C(C)NC(=O)c2cccc(OC)c2)cc1OCC (stereo not drawn)
Toxoplasma gondii
  IC50: > 30 µM
Entamoeba histolytica
  IC50: > 30 µM

## CC(=O)Nc1nnc(SCc2c(C)cc(C(C)(C)C)cc2C)s1
Toxoplasma gondii
  IC50: > 30 µM
Entamoeba histolytica
  IC50: > 30 µM

## Cc1ccc(Cl)cc1N1CCN(CCCNC(=O)C2CCN(c3nc4ccccc4[nH]3)CC2)CC1
Toxoplasma gondii
  IC50: > 30 µM
Entamoeba histolytica
  IC50: > 30 µM

## O=C(Nc1ccc(CN2CCOCC2)cc1)c1ccc(-c2cc(Cl)ccc2Cl)o1
Toxoplasma gondii
  IC50: > 30 µM
Entamoeba histolytica
  IC50: > 30 µM

## Cc1ccc(CSCc2ccc(C(=O)NC3CC3)o2)cc1
Toxoplasma gondii
  IC50: 22.3 µM
Entamoeba histolytica
  IC50: > 30 µM

## CN1CCN(c2c3c(c(C#N)c4nc5ccccc5n24)CCC3)CC1
Toxoplasma gondii
  IC50: > 30 µM
Entamoeba histolytica
  IC50: > 30 µM

## Cc1cc(Nc2cccc(F)c2)nc(NCc2ccccc2)n1
Toxoplasma gondii
  IC50: > 30 µM
Entamoeba histolytica
  IC50: > 30 µM

## CCOc1ccc(C2N(C)c3ccccc3N2C)cc1
Toxoplasma gondii
  IC50: > 30 µM
Entamoeba histolytica
  IC50: > 30 µM

## COCCn1c(C)nc2ccccc2c1=O
Toxoplasma gondii
  IC50: > 30 µM
Entamoeba histolytica
  IC50: > 30 µM

## O=C(Nc1cccc(-c2nc3ccccc3[nH]2)c1)c1cccc(NC(=O)c2ccco2)c1
Toxoplasma gondii
  IC50: > 30 µM
Entamoeba histolytica
  IC50: > 30 µM

## O=C(NC1CCN(Cc2ccccc2)CC1)c1cc(-c2cccnc2)nc2ccc(Cl)cc12
Toxoplasma gondii
  IC50: > 30 µM
Entamoeba histolytica
  IC50: > 30 µM

## CCN(Cc1ccccc1)C1CCN(Cc2cc(Br)ccc2O)CC1
Toxoplasma gondii
  IC50: > 30 µM
Entamoeba histolytica
  IC50: > 30 µM

## CC(=O)NCCc1nc2ccccc2n1Cc1ccc(C(C)C)cc1
Toxoplasma gondii
  IC50: > 30 µM
Entamoeba histolytica
  IC50: > 30 µM
